Data reported in the NIST ThermoML archive (doi:10.1021/je0340809).
± gives the expanded uncertainty stated by the source.

Settings: 101.33 kPa, Liquid

| Structure (SMILES) | speed of sound (298.15 K) [m/s] | speed of sound (308.15 K) [m/s] | speed of sound (318.15 K) [m/s] | speed of sound (328.15 K) [m/s] | speed of sound (338.15 K) [m/s] | mass density (298.15 K) [kg/m3] | mass density (308.15 K) [kg/m3] | viscosity (308.15 K) [mPa·s] | mass density (318.15 K) [kg/m3] | viscosity (318.15 K) [mPa·s] | mass density (328.15 K) [kg/m3] | viscosity (328.15 K) [mPa·s] | mass density (338.15 K) [kg/m3] | viscosity (338.15 K) [mPa·s] | viscosity (298.15 K) [mPa·s] |
| --- | --- | --- | --- | --- | --- | --- | --- | --- | --- | --- | --- | --- | --- | --- | --- |
| O [water] | 1498 ± 6.2 | 1519 ± 6.3 | 1535.1 ± 6.3 | 1545 ± 6.3 | 1551 ± 6.4 |  |  |  |  |  |  |  |  |  |  |
| C=CN1CCCC1=O [N-vinylpyrrolidone] | 1530.1 ± 6.3 | 1499.4 ± 6.2 | 1467.6 ± 6.1 | 1430.2 ± 6 | 1403.3 ± 5.9 | 1042.04 ± 0.77 | 1033.19 ± 0.71 | 2.942 ± 0.17 | 1024.38 ± 0.66 | 2.59 ± 0.15 | 1015.58 ± 0.6 | 2.259 ± 0.13 | 1006.77 ± 0.55 | 1.836 ± 0.11 |  |
| CN1CCCC1=O [N-methylpyrrolidone] | 1545.1 ± 13 | 1518.4 ± 12 | 1477.8 ± 12 | 1448.7 ± 12 | 1407.3 ± 12 | 1028.31 ± 0.68 | 1019.33 ± 0.63 | 1.365 ± 0.065 | 1010.11 ± 0.57 | 1.21 ± 0.058 | 1001.18 ± 0.51 | 1.117 ± 0.054 | 992.234 ± 0.56 | 0.986 ± 0.049 | 1.663 ± 0.078 |
| O=C1CCCN1 [2-pyrrolidinone] | 1633.2 ± 6.6 | 1603.1 ± 6.5 |  | 1549.7 ± 6.4 | 1520.1 ± 6.3 | 1107.02 ± 2.4 | 1099.15 ± 2.3 | 8.844 ± 0.34 | 1091.06 ± 2.2 | 6.259 ± 0.26 | 1082.87 ± 2.1 | 4.677 ± 0.2 | 1070.68 ± 1.9 | 3.451 ± 0.15 | 13.36 ± 0.48 |
